These results are taken from ChEMBL document CHEMBL4411289, “Antinociceptive Potential of Zinnia grandiflora” (2019).

The source made the active and inactive calls. The rule behind the calls is not given here.

The subject of assay [1] is Mus musculus. The assay is described as follows: Antinociceptive activity in ICR mouse assessed as reduction in licking time during phase 1 (acute phase) at 3.16 to 31.6 mg/kg, po dosed 30 mins before formalin injection and by formalin test. It counts as functional, organism-based.
Assay [2] has as its system Mus musculus. Kind of assay: Antinociceptive activity in ICR mouse assessed as reduction in licking time during phase 2 (tonic response phase) at 3.16 to 31.6 mg/kg, po dosed 30 mins before formalin injection and by formalin test. The format is functional, organism-based.
The test system of assay [3] is Mus musculus. Kind of assay: Antinociceptive activity in ICR mouse assessed as reduction in licking time at 31.6 mg/kg, po dosed 30 mins before formalin injection and by formalin test. It counts as functional. On the set-up: scale not given: the % may be the effect or the level left.

Regarding `C=C[C@@]1(C)[C@H]2OC(=O)C(=C)[C@H]([C@@H]2OC(=O)/C(C)=C\C)[C@H](OC(=O)C(C)C)[C@@H]1C(=C)C(=O)O`, the outcome in the assay on Mus musculus [1] and in the assay with Mus musculus [2] was Active.

Take `O=C(O)Cc1ccccc1Nc1c(Cl)cccc1Cl` [DICLOFENAC]: in the assay with Mus musculus [3], the Activity worked out at 40.9%.
